# According to patent US11427869B2, “T cell balance gene expression, compositions of matters and methods of use thereof” (THE BROAD INSTITUTE, INC., priority 2015, dated 2022):
# Tested on: Th17 cells
# Test: Flow cytometry and intracellular cytokine staining of T cells
# Format: cell-based, mouse
# Method: WT, CD5L−/− and Rorγt−/− Th17 cells were differentiated with TGF-1+IL-6 for 96h. […] Three independent experiments were performed. […] (FIG. 18E) Naïve WT T cells were activated without polarizing cytokines (Th0) and infected with retrovirus expressing Rorγt in the presence of control-RV or CD5L-RV with or without FF-MAS (5 uM) as a source of Rorγt ligand. Each dot represents an independent infection. (FIG. 18F) WT or CD5L−/− naïve cells were differentiated with TGF-β1+IL-6. At 48h, cells were replated in fresh media with either control or FF-MAS (5 uM) as a source of Rorγt ligand. Cells were harvested for FACS analysis 72h later.
# T cell differentiation culture. Naïve CD4+CD44−CD62L+CD25− T cells or Effector memory CD4+CD44+CD62L− were sorted using BD FACSAria sorter and activated with plate-bound anti-CD3 and anti-CD28 antibodies (both at 2 μg/ml) in the presence of cytokines at a concentration of 2.5×10^5 cells/ml. For Th17 differentiation: 2 ng/ml of rhTGFβ1, 2 ng/ml of rhTGFβ3, 25 ng/ml rmIL-6, 20 ng/ml rmIL-18 (all from Miltenyi Biotec) and 20 ng/ml rmIL-23 (R & D systems) were used at various combinations as specified in figures. For Th1 differentiation, 20 ng/ml rmIL-12 (R & D systems); for Th2 differentiation 20 ng/ml rmIL-4 (Miltenyi Biotec); for iTreg differentiation, 2.5 ng/ml of rhTGFβ1 were used (Miltenyi Biotec). For differentiation experiments, cells were harvested at 48 hours. For restimulation experiments, cells were differentiated for 48 hours and resuspended in fresh media with no additional cytokines for 48-72 hours. Cells were re-stimulated with PMA/ionomycin for four hours before analysis for cytokines by intracellular cytokine staining. For experiments with exogenous fatty acid, fatty acids were purchased and resuspended first with serum-free media containing BSA prior being added to culture.
# Flow cytometry and intracellular cytokine staining. Sorted naïve T cells were stimulated with phorbol 12-myristate 13-acetate (PMA) (50 ng/ml, Sigma-aldrich), ionomycin (1 μg/ml, Sigma-aldrich) and a protein transport inhibitor containing monensin (Golgistop) (BD Biosciences) for 4 h before detection by staining with antibodies.
smiles,measurement,setting,value
"CC(C)=CCC[C@@H](C)[C@H]1CC=C2C3=C(CC[C@@]21C)[C@@]1(C)CC[C@H](O)C(C)(C)[C@@H]1CC3 [Rorγt ligand, FF-MAS]",IL-17 expression,"Th0 cells with ectopic Rorγt expression and CD5L-RV, FF-MAS 5 uM",partially rescued
same,IL-17 production,"non-pathogenic Th17 cells (TGF-β1+IL-6), ligand (FF-MAS 5 uM) added at 48h, FACS 72h later",increased IL-17 production
